{"source": "patent EP0012543A1", "about": "“Compositions containing 1,3-dioxolanes as emollients” (IMPERIAL CHEMICAL INDUSTRIES PLC, priority 1978, dated 1980)", "test_system": "skin", "test": "Evaluation of emollients: test lotion rated by a panel", "assay_type": "in vivo, persons", "protocol": "The following basic composition is prepared:\nThe emollient to be tested is stirred with the other ingredients of the oil phase while heating to 70°C. Meanwhile, ingredients of the water phase are stirred and heated to 72°C. The water phase is then added gradually to the stirred oil phase, and the total mixture is stirred while it cools to room temperature. The emulsion (lotion or cream) is allowed to age for 48 hours at room temperature before evaluation.\nFor evaluation the subject applies a small amount of the lotion to the inner arm, rubs it into the skin and rates five characteristics: ease of application, moistness, smoothness, greasiness and tackiness. Numerical values are given as follows: poor = 0, average or \"not sure\" = 1, and good = 2. This is done by an experienced panel of 10 persons and ratings for each emollient are the mean for the 10 subjects. With this system, the highest possible rating is 10; the average emollient has a rating of 5; and the worst score is zero. Most of the emollients of the present invention have ratings well above 5.\nSpecific examples of acetals of fatty aldehydes are listed following under the name of the polyol. The aldehyde in each case was the mixed C13 and C15 aldehyde used in Example 1.", "key": {"[1]": {"conditions": "0-10 scale, five characteristics (ease of application, moistness, smoothness, greasiness, tackiness) each rated 0-2, mean of 10 subjects, 7.0 parts emollient in lotion aged 48 hours, rubbed into inner arm"}}}
{"compound": "OCCO", "note": "[Ethylene glycol]", "values": [{"measurement": "Emollient Rating", "setting": "in vivo", "result": 8.6}]}
{"compound": "OCCCO", "note": "[1,3-Propanediol]", "values": [{"measurement": "Emollient Rating", "setting": "[1]", "result": 6.3}]}
{"compound": "CC(O)CO", "note": "(centres unmarked) [1,2-Propylene glycol]", "values": [{"measurement": "Emollient Rating", "setting": "[1]", "result": 8.1}]}
{"compound": "OCC(O)CO", "note": "[Glycerol]", "values": [{"measurement": "Emollient Rating", "setting": "[1]", "result": 5.8}]}
{"compound": "OCC(CO)(CO)CO", "note": "[Pentaerythritol]", "values": [{"measurement": "Emollient Rating", "setting": "[1]", "result": 6.3}]}
